Holding throughout (assay type): cell-based
Test [1] deals with IL3000 T. congolense (drug sensitive) strain. Kind of test: In vitro Alamar Blue 72 hrs drug sensitivity assay for T. congolense. Conditions: Trypanosoma congolense, IL3000 T. congolense bloodstream form, read-out: T. congo Act. How it is done: In Vitro Alamar Blue 72 Hrs Drug Sensitivity Assay for T. Congolense. Compounds were tested in vitro for chemotherapeutic efficacy against the IL3000 T. congolense (drug sensitive) strain using an Alamar Blue assay. Test compounds were prepared as 10 mg/mL DMSO stocks for each assay run. Compounds were assayed in at least three separate, independent test runs and an 11-point dilution curve was used to determine the IC50 values. Bloodstream form trypanosomes were supported in HMI media containing 20% bovine serum and were incubated with test compounds for 69 hrs at 34° C. in a humidified atmosphere containing 5% CO2. Thereafter, 10 μL of Resazurin dye (12.5 mg in 100 mL of phosphate buffered saline, Sigma-Aldrich, Buchs, Switzerland) were added for an additional 3 hrs. Plates were then read using a fluorescent plate reader (Spectramax, Gemini XS, Bucher Biotec, Basel, Switzerland) using an excitation wavelength of 536 nm and an emission wavelength of 588 nm. Data points were averaged to generate sigmoidal dose-response curves and IC50 values were determined using Softmax Pro 5.2 software.
A general note: The colour change of resazurin is a common sign of viable cells or microbes.

Test [2] relates to STIB 806 K T. evansi (drug sensitive) strain. As to the kind of experiment: In vitro Alamar Blue 72 hrs drug sensitivity assay for T. evansi. Conditions: read-out: T. evansi Act. How it is done: In vitro Alamar Blue 72 hrs drug sensitivity assay for T. evansi. Compounds were tested in vitro for chemotherapeutic efficacy against the STIB 806 K T. evansi (drug sensitive) strain, using an Alamar Blue assay. Test compounds were prepared as 10 mg/mL DMSO stocks for each assay run. Compounds were assayed in at least three separate, independent test runs and an 11-point dilution curve was used to determine the IC50 values. Bloodstream form trypanosomes were incubated with test compounds for 69 hrs at 37° C. in a humidified atmosphere containing 5% CO2, supported in HMI media containing 15% horse serum. Thereafter, 10 μL of Resazurin dye (12.5 mg in 100 mL of phosphate buffered saline, Sigma-Aldrich, Buchs, Switzerland) were added for an additional 3 hrs. Plates were then read using a fluorescent plate reader (Spectramax, Gemini XS, Bucher Biotec, Basel, Switzerland) using an excitation wavelength of 536 nm and an emission wavelength of 588 nm. Data points were averaged to generate sigmoidal dose-response curves and IC50 values were determined using Softmax Pro 5.2 software.

Test [3] concerns STIB 719/ILRAD 560 T. vivax (drug sensitive) strain. As to the kind of experiment: Ex vivo Alamar Blue 48 hrs drug sensitivity assay for T. vivax. Conditions: Trypanosoma vivax, read-out: T. vivax Act. How it is done: Ex vivo Alamar Blue48 hrs drug sensitivity assay for T. vivax. Compounds were tested ex vivo for chemotherapeutic efficacy against the STIB 719/ILRAD 560 T. vivax (drug sensitive) strain, using an Alamar Blue assay. Test compounds were prepared as 10 mg/mL DMSO stocks for each assay run. Compounds were assayed in at least three separate, independent test runs and an 11-point dilution curve was used to determine the IC50 values. Bloodstream form trypanosomes were propagated and harvested from a highly parasitaemic mouse (via cardiac puncture) and were incubated with test compounds for 45 hrs at 37° C. in a humidified atmosphere containing 5% CO2, supported in HMI media containing 20% bovine serum. Thereafter, 10 μL of Resazurin dye (12.5 mg in 100 mL of phosphate buffered saline, Sigma-Aldrich, Buchs, Switzerland) were added for an additional 3 hrs. Plates were then read using a fluorescent plate reader (Spectramax, Gemini XS, Bucher Biotec, Basel, Switzerland) using an excitation wavelength of 536 nm and an emission wavelength of 588 nm. Data points were averaged to generate sigmoidal dose-response curves and IC50 values were determined using Softmax Pro 5.2 software.

Setting [4] is: STIB 806 K T. evansi bloodstream form, Alamar Blue, 72 hrs.
Where [5] appears, read: STIB719, STIB 719/ILRAD 560 T. vivax bloodstream form, ex vivo, Alamar Blue, 48 hrs.

Where two headings read alike, the source gives them in different places.

Take `CC1(Nc2ncc3nc(Nc4cccc(Cl)c4)n(C4CCC(CN)CC4)c3n2)CCOCC1` (stereo not drawn) [A-1, 9-((1s,4s)-4-(aminomethyl)cyclohexyl)-N8-(3-chlorophenyl)-N2-(4-methyltetrahydro-2H-pyran-4-yl)-9H-purine-2,8-diamine]: the IC50 in test [1], in test [2] (setting [4]) and in test [3] (setting [5]) was < 150 nM each time.
Regarding `CC1(Nc2ncc3nc(Nc4cccc(Cl)c4)n(C4CCC(CN)CC4)c3n2)CCCC1` (stereo not drawn) [A-4, 9-((1s,4s)-4-(aminomethyl)cyclohexyl)-N8-(3-chlorophenyl)-N2-(1-methylcyclopentyl)-9H-purine-2,8-diamine], the IC50 was < 150 nM in test [1]; < 150 nM in test [2] (72 h); < 150 nM in test [3] (STIB719, 48 h).
On to `CN(C)C[C@H]1CC[C@@H](n2c(Nc3cccc(Cl)c3)nc3cnc(NC4(C)CCOCC4)nc32)CC1` [A-5, N8-(3-chlorophenyl)-9-((1s,4s)-4-((dimethylamino)methyl)cyclohexyl)-N2-(4-methyltetrahydro-2H-pyran-4-yl)-9H-purine-2,8-diamine], for which the IC50 in test [1], in test [2] (setting [4]) and in test [3] (setting [5]) was < 150 nM in each case.
Take `CC1(Nc2ncc3nc(Nc4cccc(Cl)c4)n([C@H]4CC[C@H](CN)CC4)c3n2)CCOCC1` [A-7, 9-((1r,4r)-4-(aminomethyl)cyclohexyl)-N8-(3-chlorophenyl)-N2-(4-methyltetrahydro-2H-pyran-4-yl)-9H-purine-2,8-diamine]: the IC50 in test [1], in test [2] (setting [4]) and in test [3] (setting [5]) was < 150 nM each time.
Regarding `CC(=O)NC[C@H]1CC[C@@H](n2c(Nc3cccc(Cl)c3)nc3cnc(NC4(C)CCOCC4)nc32)CC1` [A-11, N-(((1s,4s)-4-(8-(3-chlorophenylamino)-2-(4-methyltetrahydro-2H-pyran-4-ylamino)-9H-purin-9-yl)cyclohexyl)methyl)acetamide], the IC50 is 350 to 500 nM in test [1], 350 to 500 nM in test [2] (setting [4]) and < 150 nM in test [3] (setting [5]).
For the molecule `CCC(C)(C)Nc1ncc2nc(Nc3cccc(C(F)(F)F)c3)n([C@H]3CC[C@@H](CN)CC3)c2n1` [A-13, 9-((1s,4s)-4-(aminomethyl)cyclohexyl)-N2-tert-pentyl-N8-(3-(trifluoromethyl)phenyl)-9H-purine-2,8-diamine], the IC50 in test [1], in test [2] (setting [4]) and in test [3] (setting [5]) was < 150 nM each time.
Turning to `CC1(Nc2ncc3nc(Nc4cc(Cl)ccc4F)n([C@H]4CC[C@@H](CN)CC4)c3n2)CCOCC1` [A-50, 9-((1s,4s)-4-(aminomethyl)cyclohexyl)-N8-(5-chloro-2-fluorophenyl)-N2-(4-methyltetrahydro-2H-pyran-4-yl)-9H-purine-2,8-diamine], the IC50 in test [1] and in test [2] (setting [4]) was < 150 nM throughout.
Consider `CN(C)C[C@H]1CC[C@@H](n2c(Nc3cccc(C(F)(F)F)c3)nc3cnc(NC4(C)CCOCC4)nc32)CC1` [A-56, 9-((1s,4s)-4-((dimethylamino)methyl)cyclohexyl)-N2-(4-methyltetrahydro-2H-pyran-4-yl)-N8-(3-(trifluoromethyl)phenyl)-9H-purine-2,8-diamine], for which the IC50 in test [1] and in test [2] (setting [4]) was < 150 nM each time.
`NC1CCC(n2c(Nc3cccc(Cl)c3)nc3cnc(NCC(F)(F)F)nc32)CC1` (stereo not drawn) [B-4, 9-((1r,4r)-4-aminocyclohexyl)-N8-(3-chlorophenyl)-N2-(2,2,2-trifluoroethyl)-9H-purine-2,8-diamine]: the IC50 in test [1] is 350 to 500 nM; in test [3] (setting [5]), < 150 nM.
Turning to `CN(c1ncc2nc(Nc3cccc(Cl)c3)n([C@H]3CC[C@@H](CN)CC3)c2n1)C1CCOCC1` [B-5, 9-((1s,4s)-4-(aminomethyl)cyclohexyl)-N8-(3-chlorophenyl)-N2-methyl-N2-(tetrahydro-2H-pyran-4-yl)-9H-purine-2,8-diamine], the IC50 was 350 to 500 nM in test [1] and < 150 nM in test [3] (setting [5]).
Regarding `OCC1CCC(n2c(Nc3cccc(Cl)c3)nc3cnc(NC4CCOCC4)nc32)CC1` (stereo not drawn) [B-6, ((1s,4s)-4-(8-(3-chlorophenylamino)-2-(tetrahydro-2H-pyran-4-ylamino)-9H-purin-9-yl)cyclohexyl)methanol], the IC50 in test [1] and in test [3] (setting [5]) was 350 to 500 nM each time.
With `CN(C)c1ncc2nc(Nc3cccc(Cl)c3)n(C3CCC(CN)CC3)c2n1` (stereo not drawn) [B-7, 9-((1s,4s)-4-(aminomethyl)cyclohexyl)-N8-(3-chlorophenyl)-N2,N2-dimethyl-9H-purine-2,8-diamine], the IC50 in test [1] is 350 to 500 nM; in test [3] (setting [5]), < 150 nM.
As to `CC1(C)CC(Nc2ncc3nc(Nc4cccc(Cl)c4)n([C@H]4CC[C@@H](CN)CC4)c3n2)CCO1` (stereo partly drawn) [B-8, 9-((1s,4s)-4-(aminomethyl)cyclohexyl)-N8-(3-chlorophenyl)-N2-(2,2-dimethyltetrahydro-2H-pyran-4-yl)-9H-purine-2,8-diamine], the IC50 is 150 to 350 nM in test [1] and < 150 nM in test [3] (setting [5]).
Regarding `CNc1ncc2nc(Nc3cccc(Cl)c3)n(C3CCC(CN)CC3)c2n1` (stereo not drawn) [B-9, 9-((1s,4s)-4-(aminomethyl)cyclohexyl)-N8-(3-chlorophenyl)-N2-methyl-9H-purine-2,8-diamine], the IC50 in test [1] was 350 to 500 nM; in test [3] (setting [5]) it was < 150 nM.
`NCC1CCC(n2c(Nc3cccc(Cl)c3)nc3cnc(NCC(F)(F)F)nc32)CC1` (stereo not drawn) [B-10, 9-((1s,4s)-4-(aminomethyl)cyclohexyl)-N8-(3-chlorophenyl)-N2-(2,2,2-trifluoroethyl)-9H-purine-2,8-diamine]: the IC50 in test [1] is 350 to 500 nM; in test [3] (setting [5]), < 150 nM.
In the case of `CC1(O)CCC(Nc2ncc3nc(Nc4cccc(Cl)c4)n(C4CCC(CN)CC4)c3n2)CC1` (stereo not drawn) [B-11, 4-(9-((1s,4s)-4-(aminomethyl)cyclohexyl)-8-(3-chlorophenylamino)-9H-purin-2-ylamino)-1-methylcyclohexanol], the IC50 in test [1] is 350 to 500 nM; in test [3] (setting [5]), < 150 nM.
In the same order, the values of `NCC1CCC(n2c(Nc3cc(Cl)cc(C(F)(F)F)c3)nc3cnc(NC4CCOCC4)nc32)CC1` (stereo not drawn) [B-12, 9-((1s,4s)-4-(aminomethyl)cyclohexyl)-N8-(3-chloro-5-(trifluoromethyl)phenyl)-N2-(tetrahydro-2H-pyran-4-yl)-9H-purine-2,8-diamine] are 350 to 500 nM and 350 to 500 nM.
`CN(C)c1ncc2nc(Nc3cc(C(F)(F)F)ccc3F)n(C3CCC(CN)CC3)c2n1` (stereo not drawn) [B-14, 9-((1s,4s)-4-(aminomethyl)cyclohexyl)-N8-(2-fluoro-5-(trifluoromethyl)phenyl)-N2,N2-dimethyl-9H-purine-2,8-diamine]: the results for the IC50 in test [1] and in test [3] (setting [5]) were 350 to 500 nM and < 150 nM, respectively.
In the same order, the values of `NCC1CCC(n2c(Nc3cc(C(F)(F)F)ccc3F)nc3cnc(N4CCCC4)nc32)CC1` (stereo not drawn) [B-15, 9-((1s,4s)-4-(aminomethyl)cyclohexyl)-N-(2-fluoro-5-(trifluoromethyl)phenyl)-2-(pyrrolidin-1-yl)-9H-purin-8-amine] are 150 to 350 nM and < 150 nM.
In the same order, the values of `NCC1CCC(n2c(Nc3cc(C(F)(F)F)ccc3F)nc3cnc(NC4CCOCC4)nc32)CC1` (stereo not drawn) [B-16, 9-((1s,4s)-4-(aminomethyl)cyclohexyl)-N8-(2-fluoro-5-(trifluoromethyl)phenyl)-N2-(tetrahydro-2H-pyran-4-yl)-9H-purine-2,8-diamine] are 350 to 500 nM and < 150 nM.
In the same order, the values of `NCC1CCC(n2c(Nc3cc(Cl)ccc3F)nc3cnc(NC4CCOCC4)nc32)CC1` (stereo not drawn) [B-17, 9-((1s,4s)-4-(aminomethyl)cyclohexyl)-N8-(5-chloro-2-fluorophenyl)-N2-(tetrahydro-2H-pyran-4-yl)-9H-purine-2,8-diamine] are < 150 nM and < 150 nM.

The values are drawn from patent US10420772B2, “Animal and human anti-trypanosomonal and anti-leishmania agents” (Celgene Corporation, priority 2016, dated 2019).
